Assays:
Type in all cases: in vivo
[1] = system: Echinochloa crus-galli; assay: Submerged treatment test; conditions: 10 g/a active ingredient, treated 5th day from sowing, examined on the 2.8th day from treatment, herbicidal index
Description: (§1) Alluvial soil from a paddy field was put in a resin-made pot having an area of 200 cm^2. After fertilization, an adequate amount of water was added, and the soil was puddled and leveled. Seeds of Echinochloa crus-galli, Monochoria vaginalis, Rotala indica and Scirpus juncoides were sowed within a layer 0.5 cm below the surface of the soil. Water was poured onto the soil to keep a water depth of 3.5 cm.
(§2) On the 5th day from the sowing, the emulsifiable concentrate containing the compound of the invention as an active ingredient which was prepared in Formulation Example 3 was diluted with water. A prescribed amount of the diluted composition was dropped to the water so as to give 10 g of the active ingredient per are.
(§3) Cultivation was continued in a greenhouse, and the herbicidal effect was examined on the […] from the treatment. The results obtained are shown in Table 4 (the compound numbers in Table 4 correspond to those in Tables 1 and 2). The herbicidal effect was evaluated in terms of herbicidal index based on Y(%) obtained from equation:
(§4) y=[1−(Weight of weeds above the ground in a treated pot)/(Weight of weeds above the ground in a non-treated pot)]×100 (%)

[2] = system: Monochoria vaginalis; assay: Submerged treatment test; conditions: 10 g/a active ingredient, treated 5th day from sowing, examined on the 2.8th day from treatment, herbicidal index
Description: as §1, §2, §3, §4

[3] = system: Rotala indica; assay: Submerged treatment test; conditions: 10 g/a active ingredient, treated 5th day from sowing, examined on the 2.8th day from treatment, herbicidal index
Description: as §1, §2, §3, §4

[4] = system: Scirpus juncoides; assay: Submerged treatment test; conditions: 10 g/a active ingredient, treated 5th day from sowing, examined on the 2.8th day from treatment, herbicidal index
Description: as §1, §2, §3, §4

[5] = system: Chenopodium album; assay: Soil treatment test pre-emergence application; conditions: 10 g/a active ingredient, 28th day from treatment, herbicidal index
Description: (§5) Volcanic ash soil from a field was put in a resin-made pot having an area of 200 cm^2. After fertilization, soil previously mixed uniformly with the seeds of Digitaria ciliaris, Setaria viridis, Chenopodium album and Polygonum lapathifolium was scattered on the soil. The emulsifiable concentrate comprising the compound of the invention as an active ingredient which was obtained in Formulation Example 3 was diluted with water, and a prescribed amount of the diluted composition was sprayed uniformly to the surface of the soil by means of a small-sized power pressure spray to give 10 g of the active ingredient per are.
(§6) Thereafter, cultivation was continued in a greenhouse, and the herbicidal effect was examined on the 28th day from the treatment. The results obtained are shown in Table 5 (the compound numbers in Table 5 correspond to those in Tables 1 and 2). The herbicidal effect was evaluated based on the same criteria as in Test Example 1.

[6] = system: Digitaria ciliaris; assay: Soil treatment test pre-emergence application; conditions: 10 g/a active ingredient, 28th day from treatment, herbicidal index
Description: as §5, §6

[7] = system: Polygonum lapathifolium; assay: Soil treatment test pre-emergence application; conditions: 10 g/a active ingredient, 28th day from treatment, herbicidal index
Description: as §5, §6

[8] = system: Setaria viridis; assay: Soil treatment test pre-emergence application; conditions: 10 g/a active ingredient, 28th day from treatment, herbicidal index
Description: as §5, §6

[9] = system: Alopeculus aequalis; assay: Foliar treatment test (1) post-emergence application; conditions: foliar treatment post-emergence at 1.0- to 2.0-leaf stage, 10 g/a active ingredient, 21st day from treatment; herbicidal index
Description: (§7) Volcanic ash soil from a field was put in a resin-made pot having an area of 200 cm^2. After fertilization, the seeds of Brassica juncea, Ipomoea purpurea, Echinochloa crus-galli and Alopeculus aequalis were cast on the soil and uniformly covered with the soil.
(§8) Cultivation was continued in a greenhouse, and when the weeds reached the 1.0- to 2.0-leaf stage, a prescribed amount of the emulsifiable concentrate comprising the compound of the invention as an active ingredient which was prepared in Formulation Example 3 as diluted with water was sprayed uniformly to the weeds by means of a small-sized power pressure spray to give 10 g of the active ingredient per are.
(§9) Thereafter, cultivation was further continued in the greenhouse, and the herbicidal effect was examined on the 21st day from the treatment. The results obtained are shown in Table 6 (the compound numbers in Table 6 correspond to those in Tables 1 and 2). The herbicidal effect was evaluated based on the same criteria as in Test Example 1.

[10] = system: Brassica juncea; assay: as above; conditions: foliar treatment post-emergence at 1.0- to 2.0-leaf stage, 10 g/a active ingredient, 21st day from treatment; herbicidal index
Description: as §7, §8, §9

[11] = system: Echinochloa crus-galli; assay: as above; conditions: foliar treatment post-emergence at 1.0- to 2.0-leaf stage, 10 g/a active ingredient, 21st day from treatment; herbicidal index
Description: as §7, §8, §9

[12] = system: Ipomoea purpurea; assay: as above; conditions: foliar treatment post-emergence at 1.0- to 2.0-leaf stage, 10 g/a active ingredient, 21st day from treatment; herbicidal index
Description: as §7, §8, §9
Also: ranges in brackets are in %.

SMILES	Herbicidal Effect Echinochloa crus-galli [1]	Herbicidal Effect Monochoria vaginalis [2]	Herbicidal Effect Rotala indica [3]	Herbicidal Effect Scirpus juncoides [4]	Herbicidal Effect Chenopodium album [5]	Herbicidal Effect Digitaria ciliaris [6]	Herbicidal Effect Polygonum lapathifolium [7]	Herbicidal Effect Setaria viridis [8]	Herbicidal Effect Alopeculus sequalis [9]	Herbicidal Effect Brassica juncea [10]	Herbicidal Effect Echinochloa crus-galli [11]	Herbicidal Effect Ipompoea-purpurea [12]
CCCOC(=O)C(Cl)Cc1cc(N2C(=O)c3ccccc3C2=O)c(F)cc1Cl (stereo not drawn) [Compound 6]	5 (91-100)	5 (91-100)	5 (91-100)	5 (91-100)	5 (91-100)	0 (0-5)	5 (91-100)	0 (0-5)	2 (31-50)	5 (91-100)	2 (31-50)	5 (91-100)
CC(C)OC(=O)C(Cl)Cc1cc(N2C(=O)c3ccccc3C2=O)c(F)cc1Cl (stereo not drawn) [Compound 7, Isopropyl 2-Chloro-3-(2-chloro-4-fluoro-5-phthalimidophenyl)propionate]	5 (91-100)	5 (91-100)	5 (91-100)	5 (91-100)	5 (91-100)	1 (6-30)	5 (91-100)	1 (6-30)	2 (31-50)	5 (91-100)	3 (51-70)	5 (91-100)
C=CCNC(=O)C(Cl)Cc1cc(N2C(=O)c3ccccc3C2=O)c(F)cc1Cl (stereo not drawn) [Compound 12]	5 (91-100)	5 (91-100)	5 (91-100)	1 (6-30)	5 (91-100)	4 (71-90)	4 (71-90)	4 (71-90)	2 (31-50)	5 (91-100)	4 (71-90)	5 (91-100)
CN(C)C(=O)C(Cl)Cc1cc(N2C(=O)c3ccccc3C2=O)c(F)cc1Cl (stereo not drawn) [Compound 14]	5 (91-100)	5 (91-100)	5 (91-100)	3 (51-70)	5 (91-100)	3 (51-70)	5 (91-100)	3 (51-70)	4 (71-90)	5 (91-100)	3 (51-70)	5 (91-100)
CCOC(=O)C(Cl)Cc1cc(N2C(=O)c3ccc(F)cc3C2=O)c(F)cc1Cl (stereo not drawn) [Compound 15, Ethyl 2-Chloro-3-[2-chloro-4-fluoro-5-(4-fluorophthalimido)phenyl]propionate]	4 (71-90)	5 (91-100)	5 (91-100)	3 (51-70)	5 (91-100)	2 (31-50)	5 (91-100)	2 (31-50)	4 (71-90)	5 (91-100)	4 (71-90)	5 (91-100)
